The record followed here is ChEMBL document CHEMBL1909529, “Molecular dynamics simulations and MM/GBSA methods to investigate binding mechanisms of aminomethylpyrimidine inhibitors with DPP-IV” (Bioorg Med Chem Lett, 2011).

pIC50: −log10 of the molar value.

A word on the pIC50: it is −log10 of the IC50, conventionally taken in molar units.

This experiment has as its target Dipeptidyl peptidase 4 (Homo sapiens, UniProt P27487). Nature of the experiment: Inhibition of DPP4.

Dipeptidyl peptidase 4, sequence (P27487 whole entry): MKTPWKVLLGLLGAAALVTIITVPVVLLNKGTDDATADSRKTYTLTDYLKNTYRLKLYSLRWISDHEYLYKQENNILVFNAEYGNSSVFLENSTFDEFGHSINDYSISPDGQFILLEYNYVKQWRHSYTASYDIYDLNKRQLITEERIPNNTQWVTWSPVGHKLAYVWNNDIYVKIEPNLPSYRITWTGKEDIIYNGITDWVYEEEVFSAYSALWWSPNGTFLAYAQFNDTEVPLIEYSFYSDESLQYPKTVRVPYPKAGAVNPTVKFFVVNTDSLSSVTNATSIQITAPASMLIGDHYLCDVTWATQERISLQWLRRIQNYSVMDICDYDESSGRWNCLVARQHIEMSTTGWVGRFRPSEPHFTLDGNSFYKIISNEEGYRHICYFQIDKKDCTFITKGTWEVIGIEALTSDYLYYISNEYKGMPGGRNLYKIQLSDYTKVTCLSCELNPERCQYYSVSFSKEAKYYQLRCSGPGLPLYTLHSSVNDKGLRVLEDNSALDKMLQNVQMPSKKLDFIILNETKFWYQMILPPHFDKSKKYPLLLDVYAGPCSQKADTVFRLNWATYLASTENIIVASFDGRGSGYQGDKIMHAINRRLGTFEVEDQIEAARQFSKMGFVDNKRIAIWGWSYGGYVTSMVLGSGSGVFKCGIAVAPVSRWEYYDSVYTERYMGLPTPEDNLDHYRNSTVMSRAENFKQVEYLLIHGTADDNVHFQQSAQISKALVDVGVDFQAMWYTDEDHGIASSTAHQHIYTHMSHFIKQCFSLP

On to `NCc1c(N)nc(-c2cc(F)cc(F)c2)nc1-c1ccc(Cl)cc1Cl`, for which the pIC50 was 8.52.
